This note sets out measurements from EP0336356A2, “Derivatives of tryptophan as CCK antagonists” (ABBOTT LABORATORIES, priority 1988, dated 1989).

Assay [1] deals with T1, CCK receptors (Cavia porcellus, UniProt Q63931).
T1 construct: cortex and pancreas were removed and rinsed with ice-cold saline; from tissue; host or cells: guinea pig pancreas membranes
T1 sequence (Q63931 1-430): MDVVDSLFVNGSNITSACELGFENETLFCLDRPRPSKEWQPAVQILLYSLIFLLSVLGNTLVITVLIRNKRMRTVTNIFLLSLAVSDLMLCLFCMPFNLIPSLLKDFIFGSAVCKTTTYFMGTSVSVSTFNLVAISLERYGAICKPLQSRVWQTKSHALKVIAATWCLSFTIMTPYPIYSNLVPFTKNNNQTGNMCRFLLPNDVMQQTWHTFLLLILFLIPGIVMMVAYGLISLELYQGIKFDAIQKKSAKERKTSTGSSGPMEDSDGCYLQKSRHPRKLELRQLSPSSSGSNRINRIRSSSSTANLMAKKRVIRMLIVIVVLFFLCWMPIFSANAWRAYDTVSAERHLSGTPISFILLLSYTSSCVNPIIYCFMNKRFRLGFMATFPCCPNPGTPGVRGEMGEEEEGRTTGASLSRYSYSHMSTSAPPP
Put plainly: Inhibition of CCK8-stimulated amylase release from guinea pig pancreatic acini. The format is cell-based. To be noted: reference concentration for CCK₈ 3x10⁻¹⁰M, 37°C, 30 min, read-out: IC₅₀ (nM) Inhibition of Amylase Release. On the procedure: This assay was performed using the modified protocol of Lin et al., J. Pharmacol Exp. Ther. 236, 729-734, 1986. Guinea pig acini were prepared by the method of Bruzzone et al. (Biochem. J. 226, 621-624, 1985) as follows. Pancreas was dissected out and connective tissues and blood vessels were removed. […] The composition of the KRH buffer was: HEPES, 12.5 mM: NaCl, 118 mM; […] CaCl₂, 1 mM; KH₂PO₄, 1.2 mM; MgSO₄, 1.2 mM; NaHCO₃, 5 mM; glucose, 10 mM, pH 7.4. The buffer was supplemented with 1% MEM vitamins, 1% MEM amino acids and 0.001% aprotinin. The tube was shaken by hand until the suspension appeared homogeneous, usually 5 to 6 min. 5 mL of the KRH, without collagenase and with 0.1% BSA, were added and the tube was centrifuged at 50 x g for 35 sec. The supernatant was discarded and 6 mL of the KRH were added to the cell pellet. […] This wash procedure was repeated once. The cell pellet from the last centrifugation step was then resuspended in 15 mL of KRH containing 0.1% BSA. The contents were filtered through a dual nylon mesh, size 275 and 75 um. The filtrate, containing the acini, were centrifuged at 50 x g for 3 min. The acini were then resuspended in 5 mL of KRH-BSA buffer for 30 min at 37°C, under 100% O₂, with a change of fresh buffer at 15 min. After the 30 min incubation time, the acini were resuspended in 100 volumes of KRH-BSA buffer, containing 3 uM phosphoramidon and 100 µM bestatin. […] The final assay volume was 500 uL. Tubes were vortexed and placed in a 37°C waterbath, under 100% O₂, for 30 min. Afterward, tubes were centrifuged at 10,000 g for 1 min. Amylase activity in the supernatant and the cell pellet were separately determined after appropriate dilutions in 0.1% Triton X-100, 10 mM NaH₂PO₄, pH 7.4 by Abbott Amylase A-gent test using the Abbott Bichromatic Analyzer 200. […]

Assay [2] has as its target T1, CCK receptors. The experiment in a line: [125I]BH-CCK8 radioligand binding, guinea pig pancreatic membranes. The note with it: 37°C for 30 min, read-out: IC₅₀ (nM) [¹²⁵I]-BH-CCK₈ Pancreas.
For assay [3], the target named is T2, CCK receptors (Cavia porcellus, UniProt H0VZC5).
T2 construct: cortex and pancreas were removed and rinsed with ice-cold saline; from tissue; host or cells: guinea pig cerebral cortex membranes
T2 sequence (H0VZC5 1-426): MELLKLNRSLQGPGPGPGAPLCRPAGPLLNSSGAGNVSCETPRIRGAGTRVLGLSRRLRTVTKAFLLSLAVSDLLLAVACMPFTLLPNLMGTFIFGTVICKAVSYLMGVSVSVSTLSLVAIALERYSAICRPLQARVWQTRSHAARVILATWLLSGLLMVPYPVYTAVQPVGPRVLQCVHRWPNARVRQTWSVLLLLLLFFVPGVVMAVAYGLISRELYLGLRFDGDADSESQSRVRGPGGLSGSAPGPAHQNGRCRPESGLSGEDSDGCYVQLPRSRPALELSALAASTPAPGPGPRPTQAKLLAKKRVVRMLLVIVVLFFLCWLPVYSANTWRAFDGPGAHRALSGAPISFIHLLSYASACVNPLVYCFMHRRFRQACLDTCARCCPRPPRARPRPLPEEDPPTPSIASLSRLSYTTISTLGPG
Put plainly: [125I]BH-CCK8 radioligand binding, guinea pig cerebral cortical membranes. To be noted: 30°C for 150 min, read-out: IC₅₀ (nM) [¹²⁵I]-BH-CCK₈ Cortex.

Assay [4] relates to CCK receptors. Put plainly: Antagonism of CCK mediated behavioral effect in mice (reversal of CCK-induced inactivity). The assay is classed as in vivo. The note with it: minimally effective dose, ICV, coadministered with CCK₈ 3 nmol, male Swiss CD-1 mice, statistically significant reversal of CCK-induced inactivity. An excerpt: Male Swiss CD-1 mice (Charles River) (22-27 g) were provided with ample food (Purina Lab (show) and water until the time of their injection with the test compound.
ICV injections were given by a free-hand method similar to that previously described (Haley, and McCormick, Br. J. Pharmacol. Chemother. 12 12-15 (1957)). The animals were placed on a slightly elevated metal grid and restrained by the thumb and forefinger at the level of the shoulders, thus immobilizing their heads. Injections were made with a 30 gauge needle with a "stop" consisting of a piece of tygon tubing to limit penetration of the needle to about 4.5 mm below the surface of the skin. The needle was inserted perpendicular to the skull at a midline point equidistant from thje eye and an equal distance posterior from the level of the eyes such that the injection site and the two eyes form an equilateral triangle. The injection volme (5 ul) was expelled smoothly over a period of approximately 1 second. […]
For the behavioral observations, the mice were placed in clear plastic cages. Each cage measured 19 x 26 x 15 centimeters and contained a 60-tube polypropylene test tube rack (NALGENE #5970-0020) placed on end in the center of the cage to enhance exploratory activity. […] Differences among groups were analyzed by Newman-Kewels analysis and a probability level of p<0.05 was accepted as significant. […]

Regarding `O=C(NC(Cc1c[nH]c2ccccc12)C(=O)N1CCC2CCCCC2C1)c1cnc2ccccc2c1` (stereo not shown) [Example 40, N-(3′-Quinolylcarbonyl)-Tryptophan-perhydroisoquinolylamide], the IC50 was less than 100000 nM at CCK receptors [1], 1000 nM at CCK receptors [2] and 10000 nM at CCK receptors [3].

`COC(=O)[C@H](NC(=O)C(Cc1c[nH]c2ccccc12)NC(=O)c1cnc2ccccc2c1)c1ccccc1` (stereo partly shown) [Example 31, Methyl N-(3′-Quinolylcarbonyl)-Tryptophyl-R-Phenylglycinate]: the values for the IC50 on CCK receptors [1], at CCK receptors [2] and at CCK receptors [3] were less than 100000 nM, 300 nM and greater than 10000 nM, respectively.

As to `C[C@H](NC(=O)C(Cc1c[nH]c2ccccc12)NC(=O)c1cc2ccccc2[nH]1)c1ccccc1` (stereo partly shown) [Example 19, N-(2′-Indolylcarbonyl)-Tryptophan-(1′,S-phenylethyl)amide], the IC50 on CCK receptors [1] was less than 10000 nM; on CCK receptors [2], 1000 nM; at CCK receptors [3], greater than 10000 nM.

Consider `COC(=O)[C@@H](NC(=O)C(Cc1c[nH]c2ccccc12)NC(=O)c1cnc2ccccc2c1)c1ccccc1` (stereo partly shown) [Example 32, Methyl N-(3′-Quinolylcarbonyl)-Tryptophyl-S-Phenylglycinate], for which the IC50 was less than 30000 nM on CCK receptors [1], 120 nM on CCK receptors [2] and greater than 10000 nM at CCK receptors [3].

As to `CCCCCN(CCCCC)C(=O)[C@@H](Cc1c[nH]c2ccccc12)NC(=O)c1cnc2ccccc2c1` [Example 21, N-(3′-Quinolylcarbonyl)-R-Tryptophan-di-n-pentylamide], the MED with CCK receptors [4] was determined as 0.3 nmol. Besides, the IC50 on CCK receptors [1] worked out at 42 nM; on CCK receptors [2], 14 nM; on CCK receptors [3], 15000 nM.

Take `CCOC(=O)CN(Cc1ccccc1)C(=O)[C@@H](Cc1c[nH]c2ccccc12)NC(=O)c1cnc2ccccc2c1` [Example 29, Ethyl N-(3′-Quinolylcarbonyl)-R-Tryptophyl-(N-benzyl)Glycinate]: the IC50 is less than 10000 nM at CCK receptors [1], 88 nM on CCK receptors [2] and 9200 nM at CCK receptors [3].

Regarding `C[C@H](NC(=O)[C@@H](Cc1c[nH]c2ccccc12)NC(=O)c1cnc2ccccc2c1)c1ccccc1` [Example 36, N-(3′-Quinolylcarbonyl)-R-Tryptophan-(1′,S-phenylethyl)amide], the IC50 was less than 10000 nM on CCK receptors [1], 380 nM on CCK receptors [2] and greater than 10000 nM at CCK receptors [3].

As for `CN(Cc1ccccc1)C(=O)C(Cc1c[nH]c2ccccc12)NC(=O)c1cnc2ccccc2c1` (stereo not shown) [Example 33, N-(3′-Quinolylcarbonyl)-Tryptophan-(N-methyl,N-benzyl)amide], the figures for the IC50 on CCK receptors [1], on CCK receptors [2] and on CCK receptors [3] were less than 30000 nM, 530 nM and 10000 nM, respectively.

Turning to `CCOC(=O)CN(Cc1ccccc1)C(=O)[C@@H](Cc1c[nH]c2ccccc12)NC(=O)c1cc2ccccc2[nH]1` [Example 28, Ethyl N-(2′-Indolylcarbonyl)-R-Tryptophyl-(N-benzyl)Glycinate], the IC50 was less than 10000 nM at CCK receptors [1], 280 nM at CCK receptors [2] and 10000 nM at CCK receptors [3].

Turning to `CCCCCN(CCCCC)C(=O)[C@H](Cc1c[nH]c2ccccc12)NC(=O)c1cnc2ccccc2c1` [Example 100, N-(3′-Quinolylcarbonyl)-S-Tryptophan-di-n-pentylamide], the figures for the IC50 on CCK receptors [1], at CCK receptors [2] and on CCK receptors [3] were less than 100000 nM, 670 nM and 6300 nM, respectively.

Consider `C[C@@H](NC(=O)[C@@H](Cc1c[nH]c2ccccc12)NC(=O)c1cnc2ccccc2c1)c1ccccc1` [Example 39, N-(3′-Quinolylcarbonyl)-R-Tryptophan-(1′,R-phenylethyl)amide], for which the IC50 at CCK receptors [1] is less than 10000 nM; on CCK receptors [2], 110 nM; at CCK receptors [3], greater than 10000 nM.
